Consider 28 molecules from publication PMC3340893, “IspE Inhibitors Identified by a Combination of In Silico and In Vitro High-Throughput Screening” (PLoS ONE, 2012).

Series [1] has as its target T1, EcIspE (Escherichia coli, UniProt P62615).
T1 construct: made in house
In words: IspE inhibition assay (Promega Kinase-Glo Plus), IC50 determination. The series is classed as biochemical. The conditions noted are these: for Ligand efficiency: from IC50 converted to Ki assuming competitive inhibition of the cytidine binding site, KM 150 µM, [CDP-ME] 500 µM, T = 298 K; for IC50: average of three independent measurements, SD in brackets, 90 µM ATP, 500 µM CDP-ME, 200 nM EcIspE, pH 8.5, n.i. = no inhibition at solubility limit measured, read-out: IC50 [M] (SD); for EcIspE inhibition at 100 µM: typical protein kinase inhibitors evaluated as possible standard inhibitor; for fold weaker IC50 / loss in potency compared to the screening hit: relative to parent screening hit (4, 7 or 8). The protocol:
Inhibition of EcIspE was measured using the Promega Kinase-Glo®-Plus kit. This kit determines the remaining ATP concentration after the kinase reaction took place by converting luciferin to oxyluciferin via an ATP-dependent luciferase. Oxyluciferin is chemoluminescent and can be detected using a plate reader.
The assay was performed under the following conditions: 90 µM ATP, 500 µM CDP-ME, 200 nM EcIspE in 100 mM Tris-HCl, pH 8.5, 20 mM MgCl2, 2% DMSO, 0.01% (v/v) Triton-X 100. The reaction was carried out in 384-well plates with 25 µl reaction volumes, incubated at 25°C for 180 min, and stopped with 25 µl Kinase-Glo® Plus reagent (Promega, Madison, USA). The chemoluminescence signal was developed for 45 min at room temperature and read out in a plate reader (TopCount, PerkinElmer, USA). To monitor assay performance and to control for inhibition of the luciferase of the Kinase-Glo® Plus kit wells containing either the reaction mixture plus compound 3 or 4 or all ingredients except for CDP-ME were also prepared. Further, as quality control for each assay plate, wells containing the kinase reaction without an inhibitor, and wells containing only ATP in assay buffer were prepared. The signals of these wells were averaged (AVHIGH, AVLOW) and used to calculate the signal to noise ratio (AVHIGH/AVLOW) and Z′ (1− [drawing 1]; SD: standard deviation). The best performance was obtained with an ATP concentration of 90 µM and a CDP-ME concentration of 500 µM (Signal to noise ratio = 3.3, Z′ = 0.69 in assay development). In this setup the ATP and CDP-ME concentrations are ∼0.2×K M and ∼3×K M, respectively. Consequently, the assay can be used to detect ligands binding to both the substrate and co-factor binding sites.
(§1) Compounds were dissolved in DMSO at concentrations between 10 and 200 mM (depending on maximal solubility) and added to the reaction mixture with a final concentration of 2% DMSO (v/v). For compounds where IspE inhibition was indicated, a 1∶3 dilution series in DMSO was prepared and tested in the same endpoint assay. IC50 values were derived by non-linear regression with a 4-parameter fit to the following equation in GraFit (Erithacus Software Ltd., Surrey, UK). [drawing 2] where y: measured signal of assay: ymax: saturated signal: [I]: inhibitor concentration: slope: Hill slope; ymin: background signal of assay.
As the assay was performed at relatively high substrate concentrations (∼3×K M) for ligand efficiency calculations, the measured IC50 values were first converted to K i values.
Ligand efficiencies were calculated using the formula: [drawing 4] where T = 298 K and R = the ideal gas constant.

The nature of series [2]: Solubility limit in the assay. The conditions noted are these: EcIspE assay reaction mixture, aqueous buffer, kinetic from dmso stock; highest concentration tested in the EcIspE assay. The series is classed as physicochemical.
Description: In the modelled binding mode of ligand 4 the pyrrolopyridine scaffold is sandwiched between Tyr24 and Tyr175 and potentially interacts with His25 via three hydrogen bonds (Figure 12a). In addition, the charged amino group in the tetrahydropyrimidinium ring may form a salt bridge interaction with Asp130. Commercially available analogues of this compound were selected to probe possible interactions with Asp130, His25 and the backbone of Lys145 (Figure 13, Table 4). […] Accordingly, these compounds can no longer form a salt bridge with Asp130. In the predicted binding mode of 12 a neutral hydrogen-bond via the thio-urea group is formed with Asp130 instead while 13 is assumed to interact with Lys9 NZ and Thr171 OG1 (Figure 12c and d). […] In order to accommodate 14 in the binding site in a similar binding mode as 4, structural rearrangements are required to avoid a steric clash of the cyclo-propyl moiety with the backbone carbonyl group of Lys145 (Figure 2). An alternative binding mode for this compound is also possible in which the core is flipped by 180° compared to 4 but still forms hydrogen bonds with His25 (Figure 12b). In this orientation, both substituents are solvent exposed.
as §1

Series [3] deals with T1, EcIspE. Further details: method as in PMID 18033714, PMID 18633530, PMID 18422643, PMID 17361977, PMID 21903402. Conditions: substrate-like IspE inhibitors, Figure 4; cited from earlier work.

pIC50: −log10 of the molar value. In brackets after ≈: the same amount, converted by molar mass. Where two headings read alike, the source gives them in different places.

T1 sequence (P62615 whole entry): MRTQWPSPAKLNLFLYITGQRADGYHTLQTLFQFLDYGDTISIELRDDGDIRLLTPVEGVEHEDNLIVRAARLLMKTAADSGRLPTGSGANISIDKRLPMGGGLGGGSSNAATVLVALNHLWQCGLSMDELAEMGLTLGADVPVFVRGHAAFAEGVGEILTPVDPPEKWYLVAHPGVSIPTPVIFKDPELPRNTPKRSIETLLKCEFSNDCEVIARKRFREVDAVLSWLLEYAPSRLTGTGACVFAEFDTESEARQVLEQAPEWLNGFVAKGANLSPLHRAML

As for `Cc1[nH]c2ccccc2c1C(Nc1ccccn1)c1ccccc1O` (centres unmarked) [Compound 7], the Ligand efficiency on EcIspE [1] is 0.29 kcal/mol per non-hydrogen atom. The pIC50 on EcIspE [1] (read-out: IC50) was 4.72. In the case of `Nc1n[nH]c(NCc2cccnc2)n1` [Compound 1], on EcIspE [1], the IC50 was 0.0018 M and the Ligand efficiency is given as 0.33 kcal/mol per non-hydrogen atom. With `Oc1csc(Nc2nccs2)n1` [Compound 3], on EcIspE [1], the Ligand efficiency is reported as 0.50 kcal/mol per non-hydrogen atom. For the same molecule, the pIC50 on EcIspE [1] (read-out: IC50) was 3.80. As for `C1=C(c2c[nH]c3ncccc23)CCNC1` [Compound 4], at EcIspE [1], the pIC50 was 2.82 and the Ligand efficiency is reported as 0.32 kcal/mol per non-hydrogen atom. Consider purvalanol [reference compound], for which, at EcIspE [1], the “EcIspE inhibition at 100 µM” value is on record as “none of the compounds showed any EcIspE inhibition”.

Consider `c1csc(NC2CCCCC2)n1` [Compound 9], for which, on EcIspE [1], the IC50 is 0.0094 M and the Ligand efficiency is recorded as 0.30 kcal/mol per non-hydrogen atom. Consider `CNc1ncc(Br)nc1N` [Compound 2], for which, at EcIspE [1], the IC50 stood at 0.00059 M and the Ligand efficiency is reported as 0.53 kcal/mol per non-hydrogen atom. For the molecule `Cc1[nH]c2ccccc2c1C(Nc1ccccn1)c1ccccc1Cl` (centres unmarked) [Compound 19], at EcIspE [1], the 50% inhibitory concentration (IC50) is 0.0024 M and the Ligand efficiency is reported as 0.18 kcal/mol per non-hydrogen atom. In the case of `CC(C)Nc1nccs1` [Compound 11], at EcIspE [1], the IC50 is 0.002 M and the Ligand efficiency is 0.50 kcal/mol per non-hydrogen atom.

Take `Oc1ccccc1CNc1nccs1` [Compound 10]: at EcIspE [1], the concentration for half-maximal inhibition (IC50) amounted to 0.0066 M and the Ligand efficiency is reported as 0.27 kcal/mol per non-hydrogen atom. Consider `CC(C)c1cc2cccnc2n1CCCN` [Compound 16], for which the solubility in series [2] was in the range of 1000 to 5000 µM (≈ 217 to 1090 µg/mL). For `CN1CC=C(c2c(C3CC3)[nH]c3ncccc23)CC1` [Compound 14], on EcIspE [1], the concentration for half-maximal inhibition (IC50) turned out to be 0.0087 M, the Ligand efficiency is recorded as 0.19 kcal/mol per non-hydrogen atom and the “fold weaker IC50 / loss in potency compared to the screening hit” value (“fold weaker IC50 / loss in potency” for short) stood at 5.8 fold.

Consider `Cc1[nH]c2ccccc2c1C(Nc1cccc(Cl)c1)c1ccccn1` (centres unmarked) [Compound 20], for which, on EcIspE [1], the half-inhibitory concentration (IC50) amounted to 0.0025 M, the Ligand efficiency is given as 0.18 kcal/mol per non-hydrogen atom and the “fold weaker IC50 / loss in potency” value is 130 fold. In the case of `CC(C)c1cc2cccnc2n1CCC(=O)O` [Compound 17], the solubility in series [2] is 1000 to 5000 µM (≈ 232 to 1160 µg/mL). Consider `O=C1Cc2c([nH]c3ccc(Br)cc23)-c2ccccc2N1` [kenpaullone, reference compound], for which, at EcIspE [1], the “EcIspE inhibition at 100 µM” value is recorded as “none of the compounds showed any EcIspE inhibition”. Regarding `CNC(=S)N1CC=C(c2c[nH]c3ncccc23)CC1` [Compound 12], on EcIspE [1], the IC50 came to 0.00083 M and the Ligand efficiency is 0.27 kcal/mol per non-hydrogen atom.

Regarding `COc1ccc(-n2c(-c3ccncc3)nc3ccccc3c2=O)cc1` [Compound 23], on EcIspE [1], the half-maximal inhibitory concentration (IC50) turned out to be 0.00032 M and the Ligand efficiency was 0.23 kcal/mol per non-hydrogen atom.

Turning to `Nc1ccn([C@@H]2O[C@H](CNC(=O)CCc3nc4ccccc4[nH]3)[C@@H](O)[C@H]2O)c(=O)n1` [b], the pIC50 at EcIspE [3] is 2.70. Turning to `Cc1[nH]c2ccccc2c1C(Nc1ccccn1)c1cccc(Cl)c1` (centres unmarked) [Compound 18], the Ligand efficiency at EcIspE [1] is listed as 0.21 kcal/mol per non-hydrogen atom.

Consider `Nc1nc(N)c2[nH]c(=O)[nH]c2n1` [Compound 5], for which, on EcIspE [1], the concentration for half-maximal inhibition (IC50) worked out at 0.0023 M and the Ligand efficiency is given as 0.37 kcal/mol per non-hydrogen atom. Take `Nc1cc(-c2ccco2)[nH]n1` [Compound 6]: at EcIspE [1], the half-inhibitory concentration (IC50) came out at 0.0035 M and the Ligand efficiency is 0.28 kcal/mol per non-hydrogen atom. `c1ccc(C[n+]2cccc3cc[nH]c32)cc1` [Compound 15]: the solubility in series [2] is 1000 to 5000 µM. Consider `C1=C(c2c[nH]c3ncccc23)CCN(c2ncccn2)C1` [Compound 13], for which, on EcIspE [1], the concentration for half-maximal inhibition (IC50) turned out to be 0.00047 M and the Ligand efficiency is 0.26 kcal/mol per non-hydrogen atom. With `CN[C@@H]1C[C@H]2O[C@@](C)([C@@H]1OC)n1c3ccccc3c3c4c(c5c6ccccc6n2c5c31)C(=O)NC4` [staurosporine, reference compound], at EcIspE [1], the “EcIspE inhibition at 100 µM” value is on record as “none of the compounds showed any EcIspE inhibition”. Take `O=c1c2ccccc2nc(-c2ccccn2)n1-c1ccccc1` [Compound 22]: at EcIspE [1], the IC50 is 0.00018 M and the Ligand efficiency is listed as 0.26 kcal/mol per non-hydrogen atom. `COc1ccc(-n2c(-c3cccnc3)nc3ccccc3c2=O)cc1` [Compound 21]: at EcIspE [1], the IC50 worked out at 2.7e-05 M, the Ligand efficiency is recorded as 0.28 kcal/mol per non-hydrogen atom and the “fold weaker IC50 / loss in potency” value was 11 fold. `O=c1c2ccccc2nc(-c2cccnc2)n1-c1ccc(Br)cn1` [Compound 8]: on EcIspE [1], the pIC50 was 5.60 and the Ligand efficiency was 0.35 kcal/mol per non-hydrogen atom. Turning to `Nc1ccn([C@@H]2O[C@H](CNC(=O)Cc3nc4ccccc4[nH]3)[C@@H](O)[C@H]2O)c(=O)n1` [a], the pIC50 on EcIspE [3] is 2.70.
